PubChem BioAssay (NCI)
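Where inhibition never reached the appropriate level, the endpoint shown equals the highest concentration tested. Otherwise, values were interpolated linearly from a five-concentration, 48-hour dose response in 96-well plates. The concentration for full growth arrest is given as TGI.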

Assays:
Experiment in all cases: NCI anticancer screen, dose series, 48 h
[1] = tested on: BT-549 breast
[2] = tested on: NCI-H226 lung
[3] = tested on: MDA-MB-435
[4] = tested on: NCI-H460 lung
[5] = tested on: 786-0 renal
[6] = tested on: LOX IMVI melanoma
[7] = tested on: NCI/ADR-RES ovarian
[8] = tested on: KM12 colon
[9] = tested on: SN12C renal
[10] = tested on: MALME-3M melanoma
[11] = tested on: HL-60(TB) leukemia
[12] = tested on: MCF7 breast
[13] = tested on: ACHN renal
[14] = tested on: IGROV1 ovarian
[15] = tested on: HOP-62 NSCLC
[16] = tested on: T-47D breast
[17] = tested on: A498 renal
[18] = tested on: OVCAR-8 ovarian
[19] = tested on: NCI-H522 lung
[20] = tested on: HCC-2998 colon
[21] = tested on: SK-MEL-5 melanoma
[22] = tested on: OVCAR-4 ovarian
[23] = tested on: PC-3 prostate
[24] = tested on: EKVX NSCLC
[25] = tested on: TK-10 renal
[26] = tested on: UO-31 renal
[27] = tested on: NCI-H23 lung
[28] = tested on: K-562 leukemia
[29] = tested on: MOLT-4 leukemia
[30] = tested on: SF-268 CNS
[31] = tested on: HCT-116 colon
[32] = tested on: SNB-75 CNS
[33] = tested on: SW-620 colon
[34] = tested on: HT29 colon
[35] = tested on: MDA-MB-231 breast
[36] = tested on: SF-295 CNS
[37] = tested on: A549 NSCLC
[38] = tested on: HCT-15 colon
[39] = tested on: SK-OV-3 ovarian
[40] = tested on: MDA-N
[41] = tested on: RXF 393 renal
[42] = tested on: UACC-257 melanoma
[43] = tested on: UACC-62 melanoma
[44] = tested on: SK-MEL-2 melanoma
[45] = tested on: COLO 205 colon
[46] = tested on: OVCAR-5 ovarian
[47] = tested on: HOP-92 NSCLC
[48] = tested on: RPMI-8226 leukemia
[49] = tested on: HS 578T breast
[50] = tested on: SK-MEL-28 melanoma
[51] = tested on: DU-145 prostate
[52] = tested on: M14 melanoma
[53] = tested on: SNB-19 CNS
[54] = tested on: U251 CNS
[55] = tested on: CAKI-1 renal
[56] = tested on: OVCAR-3 ovarian
[57] = tested on: CCRF-CEM leukemia
[58] = tested on: SF-539 CNS

`Nn1c(CCCCCCCCc2nnc(COc3ccccc3)n2N)nnc1COc1ccccc1` showed a TGI [1] of over 100 µM, a TGI [2] of over 100 µM and a TGI [3] of over 100 µM. It also gave a TGI [4] of over 100 µM, a TGI [5] of over 100 µM and a TGI [6] of over 100 µM. For the same compound, the TGI [7] was over 100 µM, the TGI [8] was over 100 µM and the TGI [9] was over 100 µM. The TGI [10] was over 100 µM, the TGI [11] was over 100 µM and the TGI [12] was over 100 µM. For the same compound, the TGI [13] was over 100 µM, the TGI [14] was over 100 µM and the TGI [15] was over 100 µM. It also gave a TGI [16] of over 100 µM, a TGI [17] of over 100 µM and a TGI [18] of over 100 µM. The TGI [19] was over 100 µM, the TGI [20] was over 100 µM and the TGI [21] was over 100 µM. It also gave a TGI [22] of over 100 µM, a TGI [23] of over 100 µM and a TGI [24] of over 100 µM. The TGI [25] was over 100 µM, the TGI [26] was over 100 µM and the TGI [27] was over 100 µM. It also gave a TGI [28] of over 100 µM, a TGI [29] of over 100 µM and a TGI [30] of over 100 µM. It also gave a TGI [31] of over 100 µM, a TGI [32] of over 100 µM and a TGI [33] of over 100 µM. For the same compound, the TGI [34] was over 100 µM, the TGI [35] was over 100 µM and the TGI [36] was over 100 µM. The TGI [37] was over 100 µM, the TGI [38] was over 100 µM and the TGI [39] was over 100 µM. The TGI [40] was over 100 µM, the TGI [41] was over 100 µM and the TGI [42] was over 100 µM. The TGI [43] was over 100 µM, the TGI [44] was over 100 µM and the TGI [45] was over 100 µM. It also gave a TGI [46] of over 100 µM, a TGI [47] of over 100 µM and a TGI [48] of over 100 µM. For the same compound, the TGI [49] was over 100 µM, the TGI [50] was over 100 µM and the TGI [51] was over 100 µM. It also gave a TGI [52] of over 100 µM, a TGI [53] of over 100 µM and a TGI [54] of over 100 µM. It also gave a TGI [55] of over 100 µM.

With `COc1cc2c(cc1OC)CN1CCCc3cc(OC)c(OC)cc3C1C2` (centres undefined) the TGI [1] was over 100 µM, the TGI [2] was 96.1 µM and the TGI [3] was 47.5 µM. The TGI [4] was over 100 µM, the TGI [5] was over 100 µM and the TGI [6] was over 100 µM. It also gave a TGI [56] of over 100 µM, a TGI [7] of over 100 µM and a TGI [8] of over 100 µM. It also gave a TGI [9] of over 100 µM, a TGI [57] of over 100 µM and a TGI [10] of over 100 µM. For the same compound, the TGI [12] was 95.2 µM, the TGI [13] was over 100 µM and the TGI [14] was over 100 µM. It also gave a TGI [58] of 50.1 µM, a TGI [15] of over 100 µM and a TGI [16] of over 100 µM. It also gave a TGI [18] of over 100 µM, a TGI [19] of over 100 µM and a TGI [20] of over 100 µM. For the same compound, the TGI [21] was over 100 µM, the TGI [22] was over 100 µM and the TGI [23] was over 100 µM. The TGI [24] was over 100 µM, the TGI [25] was over 100 µM and the TGI [26] was over 100 µM. The TGI [27] was over 100 µM, the TGI [28] was over 100 µM and the TGI [29] was over 100 µM. The TGI [30] was over 100 µM, the TGI [31] was over 100 µM and the TGI [32] was 52 µM. The TGI [33] was over 100 µM, the TGI [34] was 61.7 µM and the TGI [35] was over 100 µM. It also gave a TGI [36] of over 100 µM, a TGI [37] of over 100 µM and a TGI [38] of over 100 µM. The TGI [39] was over 100 µM, the TGI [40] was 42.4 µM and the TGI [41] was 94.4 µM. For the same compound, the TGI [42] was over 100 µM, the TGI [43] was over 100 µM and the TGI [45] was over 100 µM. For the same compound, the TGI [46] was over 100 µM, the TGI [47] was over 100 µM and the TGI [49] was over 100 µM. It also gave a TGI [50] of over 100 µM, a TGI [51] of over 100 µM and a TGI [52] of over 100 µM. It also gave a TGI [53] of over 100 µM, a TGI [54] of over 100 µM and a TGI [55] of over 100 µM.

`O=c1cc(N2CCCC2)[nH]c(=O)n1-c1ccc(F)cc1` was tested, and the TGI [1] was over 100 µM, the TGI [2] was 50.8 µM and the TGI [3] was over 100 µM. It also gave a TGI [4] of over 100 µM, a TGI [5] of over 100 µM and a TGI [6] of over 100 µM. It also gave a TGI [56] of over 100 µM, a TGI [7] of over 100 µM and a TGI [8] of over 100 µM. For the same compound, the TGI [9] was over 100 µM, the TGI [57] was over 100 µM and the TGI [10] was over 100 µM. The TGI [11] was over 100 µM, the TGI [12] was over 100 µM and the TGI [13] was over 100 µM. It also gave a TGI [14] of over 100 µM, a TGI [58] of over 100 µM and a TGI [15] of over 100 µM. The TGI [16] was over 100 µM, the TGI [17] was over 100 µM and the TGI [18] was over 100 µM. The TGI [19] was over 100 µM, the TGI [20] was over 100 µM and the TGI [22] was over 100 µM. For the same compound, the TGI [23] was over 100 µM, the TGI [24] was over 100 µM and the TGI [25] was over 100 µM. The TGI [27] was over 100 µM, the TGI [28] was over 100 µM and the TGI [29] was over 100 µM. For the same compound, the TGI [30] was over 100 µM, the TGI [31] was over 100 µM and the TGI [32] was over 100 µM. It also gave a TGI [33] of over 100 µM, a TGI [34] of over 100 µM and a TGI [35] of over 100 µM. The TGI [36] was over 100 µM, the TGI [37] was over 100 µM and the TGI [38] was over 100 µM. For the same compound, the TGI [39] was over 100 µM, the TGI [40] was over 100 µM and the TGI [41] was over 100 µM. The TGI [42] was over 100 µM, the TGI [43] was over 100 µM and the TGI [44] was over 100 µM. It also gave a TGI [45] of over 100 µM, a TGI [46] of over 100 µM and a TGI [47] of over 100 µM. It also gave a TGI [48] of over 100 µM, a TGI [49] of over 100 µM and a TGI [50] of over 100 µM. The TGI [51] was over 100 µM, the TGI [52] was over 100 µM and the TGI [53] was over 100 µM. It also gave a TGI [54] of over 100 µM and a TGI [55] of over 100 µM.

`N#CCCN(CCC#N)c1ccc(C(N=Nc2ccccc2)=Nc2ccc(Cl)cc2)cc1` gave a TGI [1] of over 100 µM, a TGI [2] of over 100 µM and a TGI [3] of over 100 µM. It also gave a TGI [4] of over 100 µM, a TGI [5] of over 100 µM and a TGI [56] of over 100 µM. The TGI [7] was over 100 µM, the TGI [8] was over 100 µM and the TGI [9] was over 100 µM. It also gave a TGI [57] of over 100 µM, a TGI [12] of over 100 µM and a TGI [13] of over 100 µM. It also gave a TGI [14] of over 100 µM, a TGI [58] of over 100 µM and a TGI [15] of over 100 µM. It also gave a TGI [16] of over 100 µM, a TGI [17] of over 100 µM and a TGI [18] of over 100 µM. It also gave a TGI [19] of over 100 µM, a TGI [20] of over 100 µM and a TGI [21] of over 100 µM. It also gave a TGI [22] of over 100 µM, a TGI [23] of over 100 µM and a TGI [24] of over 100 µM. For the same compound, the TGI [25] was over 100 µM, the TGI [26] was over 100 µM and the TGI [27] was over 100 µM. The TGI [28] was over 100 µM, the TGI [29] was over 100 µM and the TGI [30] was over 100 µM. It also gave a TGI [31] of over 100 µM, a TGI [32] of over 100 µM and a TGI [33] of over 100 µM. The TGI [34] was over 100 µM, the TGI [35] was over 100 µM and the TGI [36] was over 100 µM. It also gave a TGI [37] of over 100 µM, a TGI [38] of over 100 µM and a TGI [39] of over 100 µM. The TGI [40] was over 100 µM, the TGI [41] was over 100 µM and the TGI [42] was over 100 µM. It also gave a TGI [43] of over 100 µM, a TGI [45] of over 100 µM and a TGI [46] of over 100 µM. The TGI [47] was over 100 µM, the TGI [48] was over 100 µM and the TGI [49] was over 100 µM. For the same compound, the TGI [50] was over 100 µM, the TGI [51] was over 100 µM and the TGI [52] was over 100 µM. For the same compound, the TGI [53] was over 100 µM, the TGI [54] was over 100 µM and the TGI [55] was over 100 µM.
